Assay results reported in patent publication US20110105389A1 (priority 2009, published 2011).

Test system: male Zucker fatty rats
Test: Subchronic (7 day) oral administration in male Zucker fatty rats, Method B14
Format: in vivo, rat
Source text: B14. Effects of Subchronic Administration of Representative Compounds of the Invention in Male Zucker Fatty Rats
The objective of this study is to determine the subchronic effects of test compounds on body weight change, food and water consumption, as well as glucose homeostasis and insulin levels in male Zucker fatty rats up to 7 days upon oral administration. The male Zucker fatty rat was selected as an insulin resistance and genetically defined obesity model which is sensitive to the effect of different insulin sensitizers in acute as well as in chronic settings.
Rats were individually housed in rodent cages with soft wood bedding on the bottom and equipped with water bottles. All individual cages were clearly labeled with a cage card indicating study number, group, animal number and dose level. Each animal was uniquely identified by an animal number. The animal number was designated the day the animals arrived at the animal facility. The animal room environment was controlled (targeted ranges: temperature 22±2° C.; relative humidity 50±10%; light/dark cycle: 12 hours light, 12 hours dark, lights on from 06:00 AM to 06:00 PM). A regular rodent diet (Charles River 5075 rodent chow, Purina Mills, Canada) was provided to the animals ad libitum, after food weighing. Municipal tap water was provided to the animals ad libitum via water bottles. Fresh tap water was provided after water bottle weighing.
An acclimation period of approximately 7 days for all groups was allowed between the receipt of animals and the start of treatment to accustom the rats to the laboratory environment. On experimental day −7, animals were stratified according to body weight into an appropriate number of groups of 4 or 8 animals each.
Test compound was administered, as a solution, orally, at the doses indicated. The dose volume was 5 mL/kg/day. Groups were dosed once daily around 8:00 a.m. On Day 3, on half of the animals (Subset A) and on Day 4 on the other half (Subset B), an OGTT was performed 2 hrs post-dosing (around 10:00 a.m.). The OGTT was repeated the same way on Days 7 (Subset A) and 8 (Subset B).
For the study animals, the data collected from study Days −7 to 8 are reported. Body weights were recorded for all animals on Day −7 prior to initiation of dosing, at the time of group assignment and daily throughout the study period (Day 1-8). Food and water intake was measured daily throughout the study period (Day 1-8). On Day 1 (Subset A), Day 2 (Subset B), Day 3 (Subset A), Day 4 (Subset B), Day 7 (Subset A) and Day 8 (Subset B), animals from Groups 2 and 3 were sampled for blood into EDTA coated tubes (K2-EDTA microtainer tubes, Becton Dickinson) from a tail vein (˜100 μl) 2 hrs post-dose for PK analysis. Blood was centrifuged at 4000 rpm for 10 min. at 4° C., and the resulting plasma transferred into non-coated tubes and stored at −80° C. until analysis.
An oral glucose tolerance test (OGTT) was carried out in animals of all groups on Day 3 (half of the animals) as well as on day 4 (other half of the animals). This was done 2 hrs post-dose. Animals were subjected to an overnight fast (food removed the day before at 5:00 PM). Blood samples of approximately 20 μL each for plasma glucose and 230 μL for plasma insulin measurements were collected into EDTA coated tubes (K2-EDTA microtainer tubes, Becton Dickinson) from a tail vein, at 0 (pre-glucose), 15, 30, 60, and 120 min after oral administration of 1.5 g/kg glucose (dextrose, Sigma Aldrich, 450 mg/mL dosing solution). The glucose solution was administered by oral gavage via a stainless steel feeding needle (18×2″, Popper @ Sons, cat. # 20068-642, VWR). While glucose concentrations were determined from a 20 μL drop of blood (Accu-Chek Aviva glucometers, Roche Diagnostics), the remaining 230 μL was centrifuged at 4000 rpm for 10 min. at 4° C., and the resulting plasma transferred into non-coated tubes and stored a −80° C. for insulin determination. […]

## CC[C@@H]1CCc2ccc(F)cc2OCCN[C@@H](C(C)C)C(=O)N(C)[C@@H](C(C)O)C(=O)N[C@H](Cc2c[nH]c3ccccc23)C(=O)N1 (some centres unmarked) [Compound 1505]
10 mg/kg, 2 day timepoint
  food consumption on a daily basis vs vehicle controls: significant reductions
30 mg/kg oral, FIG. 10
  cumulative food consumption: significant decrease
30 mg/kg oral, over the 7 day study period, FIG. 9
  net body weight: significant reduction
30 mg/kg, 2 day timepoint
  food consumption on a daily basis vs vehicle controls: significant reductions
30 mg/kg, at both day 3 and day 7
  OGTT blood glucose versus untreated controls: decrease
Attaining significance at the higher dose
  insulin sensitivity index: higher
Both treatment groups
  free fatty acids: significantly reduced
  total cholesterol: significantly reduced
Higher dose (30 mg/kg), through the 6 day timepoint
  food consumption on a daily basis vs vehicle controls: remained significant
Oral administration
  plasma levels (PK analysis): sufficient plasma levels
rat, in vivo
  insulin levels (area under the curve, AUC) in OGTT: lowering effect
